The record followed here is ChEMBL document CHEMBL5236654, “Fine-tuning of nitrogen-containing bisphosphonate esters that potently induce degradation of HMG-CoA reductase” (Bioorg Med Chem, 2023).

pEC50: −log10 of the molar value.

The first test addresses T1, 3-hydroxy-3-methylglutaryl-coenzyme A reductase (Homo sapiens, UniProt P04035).
T1 sequence (P04035 whole entry): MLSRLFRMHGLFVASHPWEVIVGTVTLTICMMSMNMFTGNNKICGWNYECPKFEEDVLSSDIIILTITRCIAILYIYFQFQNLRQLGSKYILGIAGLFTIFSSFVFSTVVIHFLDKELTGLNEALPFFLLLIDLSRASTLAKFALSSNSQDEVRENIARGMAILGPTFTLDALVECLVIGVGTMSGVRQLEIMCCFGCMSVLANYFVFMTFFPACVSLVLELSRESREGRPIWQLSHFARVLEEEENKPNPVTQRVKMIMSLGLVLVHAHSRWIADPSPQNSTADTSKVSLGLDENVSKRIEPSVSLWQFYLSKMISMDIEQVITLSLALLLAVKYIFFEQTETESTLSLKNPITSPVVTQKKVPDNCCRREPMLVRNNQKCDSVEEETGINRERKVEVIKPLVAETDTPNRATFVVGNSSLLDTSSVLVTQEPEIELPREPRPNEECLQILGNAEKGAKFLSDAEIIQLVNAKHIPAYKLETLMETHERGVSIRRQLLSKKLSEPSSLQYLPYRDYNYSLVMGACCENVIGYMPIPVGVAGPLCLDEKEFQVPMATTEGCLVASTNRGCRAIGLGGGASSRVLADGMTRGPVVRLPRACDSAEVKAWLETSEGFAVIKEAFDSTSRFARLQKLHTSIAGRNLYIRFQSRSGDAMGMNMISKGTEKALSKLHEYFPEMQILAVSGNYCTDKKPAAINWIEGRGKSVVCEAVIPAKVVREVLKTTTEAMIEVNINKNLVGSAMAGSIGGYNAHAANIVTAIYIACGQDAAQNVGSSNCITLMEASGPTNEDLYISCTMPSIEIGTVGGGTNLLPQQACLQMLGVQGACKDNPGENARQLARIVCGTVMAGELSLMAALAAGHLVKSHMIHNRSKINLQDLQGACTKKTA
In words: Induction of HMGCR degradation in HEK293 cells incubated for 4 hrs by luciferase based assay. Type of test: cell-based.
For the compound `CC(C)OP(=O)(OC(C)C)C(Cc1cc(C(C)(C)C)nc(C(C)(C)C)c1)P(=O)(OC(C)C)OC(C)C`, the pEC50 was 6.88.
On the same count and under the same terms, as for `CCC(CF)(CF)c1cc(CC(P(=O)(OC(C)C)OC(C)C)P(=O)(OC(C)C)OC(C)C)cc(C(CC)(CF)CF)n1`, the figure is 6.45.
Still for that read-out and setting: as for `CC(C)OP(=O)(OC(C)C)C(Cc1cc(C2CCCCC2)nc(C(C)(C)C)c1)P(=O)(OC(C)C)OC(C)C`, the figure is 6.22; as for `CC(C)OP(=O)(OC(C)C)C(Cc1cc(C(C)(C)C)nc2ccccc12)P(=O)(OC(C)C)OC(C)C`, 5.84; as for `CC(C)OP(=O)(OC(C)C)C(Cc1cc(Cc2ccccc2)nc(C(C)(C)C)c1)P(=O)(OC(C)C)OC(C)C`, 6.06.
`CC(C)OP(=O)(OC(C)C)C(Cc1cc(C(C)(C)C)nc(C(C)(C)CF)c1)P(=O)(OC(C)C)OC(C)C` had a pEC50 of 7.01.
Take `CCCC(C)(C)c1cc(CC(P(=O)(OC(C)C)OC(C)C)P(=O)(OC(C)C)OC(C)C)cc(C(C)(C)C)n1`: the negative logarithm of the EC50 (pEC50) is 6.47.
Still for that read-out and setting: as for `CC(C)OP(=O)(OC(C)C)C(Cc1cc(C(C)(C)C)nc(C(C)(C)CO)c1)P(=O)(OC(C)C)OC(C)C`, the figure is 6.41; as for `CCC(C)(C)c1cc(CC(P(=O)(OC(C)C)OC(C)C)P(=O)(OC(C)C)OC(C)C)cc(C(C)(C)CC)n1`, 7.01; as for `CCOP(=O)(OCC)C(Cc1cc(C(C)(C)C)nc(C(C)(C)C)c1)P(=O)(OCC)OCC`, 6.47.
For `CCCCC(CC)c1cc(CC(P(=O)(OC(C)C)OC(C)C)P(=O)(OC(C)C)OC(C)C)cc(C(C)(C)C)n1` (centres undefined), the pEC50 was 6.00.
Consider `CC(C)(C)c1cc(CC(P(=O)(OCC2CC2)OCC2CC2)P(=O)(OCC2CC2)OCC2CC2)cc(C(C)(C)C)n1`, for which the pEC50 is below 5.00.
Still for that read-out and setting: for `CC(C)OP(=O)(OC(C)C)C(Cc1cc(C(C)C)nc(C(C)(C)C)c1)P(=O)(OC(C)C)OC(C)C` the value was 6.45; for `CCC(C)(C)c1cc(CC(P(=O)(OC(C)C)OC(C)C)P(=O)(OC(C)C)OC(C)C)cc(C(C)(C)C)n1`, 6.82.
On the same count and under the same terms, for `CC(C)COP(=O)(OCC(C)C)C(Cc1cc(C(C)(C)C)nc(C(C)(C)C)c1)P(=O)(OCC(C)C)OCC(C)C` the value was below 5.00.
Turning to `CC(C)OP(=O)(OC(C)C)C(Cc1cc(C2CCCCC2)nc(C2CCCCC2)c1)P(=O)(OC(C)C)OC(C)C`, the pEC50 was below 5.00.
Still for that read-out and setting: as for `CCC(CC)c1cc(CC(P(=O)(OC(C)C)OC(C)C)P(=O)(OC(C)C)OC(C)C)cc(C(C)(C)C)n1`, the figure is 6.14; as for `CC(C)OP(=O)(OC(C)C)C(Cc1cc(C23CC4CC(CC(C4)C2)C3)nc(C23CC4CC(CC(C4)C2)C3)c1)P(=O)(OC(C)C)OC(C)C`, below 5.00; as for `CC(C)OP(=O)(OC(C)C)C(Cc1cc(C(C)(C)C)nc(C(C)(C)COCc2ccccc2)c1)P(=O)(OC(C)C)OC(C)C`, 6.51.
Still for that read-out and setting: as for `CCCOP(=O)(OCCC)C(Cc1cc(C(C)(C)C)nc(C(C)(C)C)c1)P(=O)(OCCC)OCCC`, the figure is 6.08; as for `COCOCC(C)(C)c1cc(CC(P(=O)(OC(C)C)OC(C)C)P(=O)(OC(C)C)OC(C)C)cc(C(C)(C)C)n1`, 6.31.
For `CC(C)OP(=O)(OC(C)C)C(Cc1cc(C(C)(C)CF)nc(C(C)(C)CF)c1)P(=O)(OC(C)C)OC(C)C`, the pEC50 was 7.07.
Same read-out and setting: as for `CC(C)OP(=O)(OC(C)C)C(Cc1cc(C(C)(C)C)cc(C(C)(C)C)n1)P(=O)(OC(C)C)OC(C)C`, the figure is 6.16.
Same read-out and setting: as for `CCC(CF)(CF)c1cc(CC(P(=O)(OC(C)C)OC(C)C)P(=O)(OC(C)C)OC(C)C)cc(C(C)(C)C)n1`, the figure is 6.99; as for `CCCCOP(=O)(OCCCC)C(Cc1cc(C(C)(C)C)nc(C(C)(C)C)c1)P(=O)(OCCCC)OCCCC`, below 5.00.
Still for that read-out and setting: as for `CC(C)OP(=O)(OC(C)C)C(Cc1cc(C(C)(C)C)nc(C(C)(C)C)n1)P(=O)(OC(C)C)OC(C)C`, the figure is 6.35; as for `CC(C)OP(=O)(OC(C)C)C(Cc1cc(C(C)(C)C)nc(C23CC4CC(CC(C4)C2)C3)c1)P(=O)(OC(C)C)OC(C)C`, 5.65.

The target of another test is T2, 3-hydroxy-3-methylglutaryl-coenzyme A reductase (Cricetulus griseus, UniProt P00347).
T2 sequence (P00347 whole entry): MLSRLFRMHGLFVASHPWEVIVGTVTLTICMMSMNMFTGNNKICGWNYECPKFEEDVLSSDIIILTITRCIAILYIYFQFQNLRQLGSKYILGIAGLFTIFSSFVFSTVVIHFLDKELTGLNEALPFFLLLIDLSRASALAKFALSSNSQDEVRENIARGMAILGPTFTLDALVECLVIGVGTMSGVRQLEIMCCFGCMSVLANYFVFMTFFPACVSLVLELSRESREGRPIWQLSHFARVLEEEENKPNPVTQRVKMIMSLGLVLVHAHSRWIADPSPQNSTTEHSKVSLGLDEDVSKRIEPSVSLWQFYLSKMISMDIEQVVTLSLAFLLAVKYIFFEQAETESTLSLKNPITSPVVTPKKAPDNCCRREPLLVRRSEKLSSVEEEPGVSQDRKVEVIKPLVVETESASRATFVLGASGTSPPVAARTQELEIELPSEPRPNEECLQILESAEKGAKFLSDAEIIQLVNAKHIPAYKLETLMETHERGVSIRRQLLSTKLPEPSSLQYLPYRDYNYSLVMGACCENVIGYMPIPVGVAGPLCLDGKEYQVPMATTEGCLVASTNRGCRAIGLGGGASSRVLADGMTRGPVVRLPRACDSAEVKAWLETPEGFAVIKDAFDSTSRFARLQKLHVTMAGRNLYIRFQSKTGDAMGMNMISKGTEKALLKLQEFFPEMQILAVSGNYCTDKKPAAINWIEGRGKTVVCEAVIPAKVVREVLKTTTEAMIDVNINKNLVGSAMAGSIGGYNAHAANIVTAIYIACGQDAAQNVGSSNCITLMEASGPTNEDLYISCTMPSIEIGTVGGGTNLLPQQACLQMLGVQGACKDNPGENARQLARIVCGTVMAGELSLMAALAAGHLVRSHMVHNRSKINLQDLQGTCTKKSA
In words: Induction of HMGCR degradation in CHO-7 cells incubated for 16 hrs by immunoblotting assay. In kind it is cell-based. In general terms: In western blotting, separated proteins are transferred to a membrane and probed.
The compound `C=CCC(O)(CC=C)CCC[C@@H](C)[C@H]1CC[C@H]2[C@@H]3[C@@H](O)C=C4C(C)(C)[C@@H](O)CC[C@]4(C)[C@H]3CC[C@]12C` showed a pEC50 of 6.41.

Another test has as its target T1, 3-hydroxy-3-methylglutaryl-coenzyme A reductase. In words: Induction of HMGCR degradation in human HepG2 cells incubated for 3 hrs by densitometric analysis. In kind it is cell-based.
In turn, `CCOP(=O)(OCC)C(Cc1cc(C(C)(C)C)c(O)c(C(C)(C)C)c1)P(=O)(OCC)OCC` had a pEC50 of 5.96.

One may read the pEC50 as the negative decadic logarithm of the EC50, by convention in mol/L. The low end stands for a high EC50, the high end for a low EC50.
